# According to publication PMC12606464, “Investigating NFE2L1 activators for targeted protein aggregate clearance: a follow-up study” (RSC Medicinal Chemistry, 2025):
# Key:
# SKN-1A = experiment: rpt-3p::GFP reporter in C. elegans strain GR2183; format: in vivo, Caenorhabditis elegans
# Excerpt: Firstly, we investigated whether RUN-89 triggers SKN-1A activation in C. elegans by using the GR2183 strain. By using this strain, the activation of SKN-1A is indicated by GFP expression, which is driven by the promoter of the proteasome subunit gene (rpt-3p::GFP).[80,81]
# Figure S9. RUN-89 activates the NFE2L1 orthologue gene SKN-1A in C. elegans.
# In the GR2183 strain, activation of the SKN-1A is reported by the expression of GFP under the control of the proteasome subunit gene promoter (rpt-3p::GFP). Animals were treated with 25 µM RUN-89 or DMSO (vehicle control) for 24 hours with subsequent microscopic analysis.
# Results of relative GFP fluorescence intensity per single animal are presented. Overall, 71 animals (n | DMSO = 20, RUN-89 = 21) from three independent experiments ( N) were analyzed.
# The two dashed horizontal lines indicate the interquartile range, and the thick horizontal line represents the median. A significant increase in fluorescence intensity after RUN-89 treatment was verified by a Kolmogorov-Smirnov test. ***p<0.001. […]
# Transgenic GR2183 worms carrying the reporter gene (rpt -3p::GFP) were exposed to RUN-89 for 24 hours and for AM140 (rmIs132 [unc-54p::Q35::YFP]) to aged 6 days under treatment to establish protein aggregation model. The worms were then anesthetized with […] sodium azide and placed on glass slides with 5% agar for fluorescence microscope observation. […]
# SH-SY5Y cells = experiment: Rotenone-induced α-synuclein proteotoxicity in SH-SY5Y cells; format: cell-based, human; conditions: SH-SY5Y expressing α-synuclein-GFP; pre-treatment 4 h (0.312-2.5 μM), rotenone 1.125 μM 24 h; approximately 30% without compounds
# Protocol: Fig. 3 (A) HEK293 cells were treated with RUN compounds at a concentration of 7.5 μM for 16 hours. DMSO was used as a vehicle control. Proteasome chymotrypsin-like activity was measured in cell lysates at 37 °C. Data came from three biological replicates (n = 3). Statistical analysis was done using ratio paired t-tests corrected for multiple comparisons with Holm–Šídák's method (α = 0.05). *p < 0.05. Detailed results of the analysis are shown in SI Table S7. (B) RUN-89 protects against polyQ-mediated toxicity in an NFE2L1-dependent manner. HCT116 parental cells (WT) and two independent DDI2 knockout clones (KO 04 and KO 11), in which NFE2L1 activation is impaired, were transiently transfected with plasmids encoding non-aggregating EGFP-HttQ23 or aggregation-prone EGFP-HttQ74. Cells were treated with 1 or 3 μM RUN-89 for 48 hours, and viability was measured using the alamarBlue assay. […] Data are shown as the Geomean ± GeoSD from four independent biological replicates (n = 4). […] (C left) The protective effect of RUN compounds was assessed by rotenone-induced α-synuclein proteotoxicity in SH-SY5Y cells, which mimics the PD-like phenotype. […]
# A second stress assay was performed using rotenone, a mitochondrial complex I inhibitor. […] After 4 hours, rotenone (1.125 μM) was added and one day later the viability of the cells was measured. […]
smiles,measurement,setting,value
COc1ccc(/C=C2\CC(NC(=O)C3CCCC3)C/C(=C\c3ccc(OC)c(OC)c3)C2=O)cc1OC (stereo not drawn) [RUN-89],Average relative fluorescence intensity per GR2183 animal,"SKN-1A; 25 μM, 24 h, 20 °C, young adults, versus vehicle",significantly higher
same,Median rpt-3p::GFP (SKN-1A reporter),"SKN-1A; GR2183, DMSO median = 100.00, Figure S9",114.62
same,Cell viability after rotenone treatment,SH-SY5Y cells,up to 70%
